# Source: patent publication US20230390183A1, “METHOD FOR IMPROVING SKIN CONDITION BY CRASSOCEPHALUM RABENS EXTRACT” (Greenyn Biotechnology Co., Ltd, priority 2022, published 2023)
# System: skin (moisture, wrinkle, collagen density)
# Assay: Comparison of different functional components for skin-improving efficacy
# Assay type: in vivo, human
# Source text: In addition to the Crassocephalum rabens extract of the present invention, some other commercially available materials were collected, including oral hyaluronic acid (for continuous use of 20 days), ceramide, and collagen (for continuous use of 6 weeks), to compare their effects in maintaining skin hydrated, reducing wrinkles, and increasing collagen.
substance,measurement,setting,value
ceramide,Moisture (%),no duration of use printed,+2.7%
same,Wrinkle (%),no duration of use printed,−5.8%
collagen,Moisture (%),continuous use of 6 weeks,+25.5%
same,Wrinkle (%),continuous use of 6 weeks,No significant
hyaluronic acid [Oral hyaluronic acid],Moisture (%),continuous use of 20 days,+21.5%
same,Wrinkle (%),continuous use of 20 days,−12.5%
